Experimental data from article PMC5933747 (PLoS ONE, 2018).
Like-named read-outs stand apart in the source and are kept apart here.

Tests used:
Format in all cases: cell-based
[1] = target: human NaV1.5 (Homo sapiens, UniProt Q14524); assay: IonWorks Quattro (IWQ) electrophysiology, human NaV1.5
[2] = target: human NaV1.7 (Homo sapiens, UniProt Q15858); assay: IonWorks Quattro (IWQ) electrophysiology, human NaV1.7; settings: read-out: Glu mutant IWQ IC50 NaV1.7
[3] = target: human NaV1.4 (Homo sapiens, UniProt P35499); assay: IonWorks Quattro (IWQ) electrophysiology, human NaV1.4
[4] = read-out: Glu mutant IWQ IC50 NaV1.4
[5] = human, read-out: Ala mutant IWQ IC50 NaV1.5
[6] = human, read-out: Glu mutant IWQ IC50 NaV1.5
[7] = read-out: Ala mutant IWQ IC50 NaV1.4
[8] = IWQ platform, single-residue Ala scan of JzTx-V, read-out: Ala mutant IWQ IC50 NaV1.5

Sequence of human NaV1.5 (Q14524 whole entry): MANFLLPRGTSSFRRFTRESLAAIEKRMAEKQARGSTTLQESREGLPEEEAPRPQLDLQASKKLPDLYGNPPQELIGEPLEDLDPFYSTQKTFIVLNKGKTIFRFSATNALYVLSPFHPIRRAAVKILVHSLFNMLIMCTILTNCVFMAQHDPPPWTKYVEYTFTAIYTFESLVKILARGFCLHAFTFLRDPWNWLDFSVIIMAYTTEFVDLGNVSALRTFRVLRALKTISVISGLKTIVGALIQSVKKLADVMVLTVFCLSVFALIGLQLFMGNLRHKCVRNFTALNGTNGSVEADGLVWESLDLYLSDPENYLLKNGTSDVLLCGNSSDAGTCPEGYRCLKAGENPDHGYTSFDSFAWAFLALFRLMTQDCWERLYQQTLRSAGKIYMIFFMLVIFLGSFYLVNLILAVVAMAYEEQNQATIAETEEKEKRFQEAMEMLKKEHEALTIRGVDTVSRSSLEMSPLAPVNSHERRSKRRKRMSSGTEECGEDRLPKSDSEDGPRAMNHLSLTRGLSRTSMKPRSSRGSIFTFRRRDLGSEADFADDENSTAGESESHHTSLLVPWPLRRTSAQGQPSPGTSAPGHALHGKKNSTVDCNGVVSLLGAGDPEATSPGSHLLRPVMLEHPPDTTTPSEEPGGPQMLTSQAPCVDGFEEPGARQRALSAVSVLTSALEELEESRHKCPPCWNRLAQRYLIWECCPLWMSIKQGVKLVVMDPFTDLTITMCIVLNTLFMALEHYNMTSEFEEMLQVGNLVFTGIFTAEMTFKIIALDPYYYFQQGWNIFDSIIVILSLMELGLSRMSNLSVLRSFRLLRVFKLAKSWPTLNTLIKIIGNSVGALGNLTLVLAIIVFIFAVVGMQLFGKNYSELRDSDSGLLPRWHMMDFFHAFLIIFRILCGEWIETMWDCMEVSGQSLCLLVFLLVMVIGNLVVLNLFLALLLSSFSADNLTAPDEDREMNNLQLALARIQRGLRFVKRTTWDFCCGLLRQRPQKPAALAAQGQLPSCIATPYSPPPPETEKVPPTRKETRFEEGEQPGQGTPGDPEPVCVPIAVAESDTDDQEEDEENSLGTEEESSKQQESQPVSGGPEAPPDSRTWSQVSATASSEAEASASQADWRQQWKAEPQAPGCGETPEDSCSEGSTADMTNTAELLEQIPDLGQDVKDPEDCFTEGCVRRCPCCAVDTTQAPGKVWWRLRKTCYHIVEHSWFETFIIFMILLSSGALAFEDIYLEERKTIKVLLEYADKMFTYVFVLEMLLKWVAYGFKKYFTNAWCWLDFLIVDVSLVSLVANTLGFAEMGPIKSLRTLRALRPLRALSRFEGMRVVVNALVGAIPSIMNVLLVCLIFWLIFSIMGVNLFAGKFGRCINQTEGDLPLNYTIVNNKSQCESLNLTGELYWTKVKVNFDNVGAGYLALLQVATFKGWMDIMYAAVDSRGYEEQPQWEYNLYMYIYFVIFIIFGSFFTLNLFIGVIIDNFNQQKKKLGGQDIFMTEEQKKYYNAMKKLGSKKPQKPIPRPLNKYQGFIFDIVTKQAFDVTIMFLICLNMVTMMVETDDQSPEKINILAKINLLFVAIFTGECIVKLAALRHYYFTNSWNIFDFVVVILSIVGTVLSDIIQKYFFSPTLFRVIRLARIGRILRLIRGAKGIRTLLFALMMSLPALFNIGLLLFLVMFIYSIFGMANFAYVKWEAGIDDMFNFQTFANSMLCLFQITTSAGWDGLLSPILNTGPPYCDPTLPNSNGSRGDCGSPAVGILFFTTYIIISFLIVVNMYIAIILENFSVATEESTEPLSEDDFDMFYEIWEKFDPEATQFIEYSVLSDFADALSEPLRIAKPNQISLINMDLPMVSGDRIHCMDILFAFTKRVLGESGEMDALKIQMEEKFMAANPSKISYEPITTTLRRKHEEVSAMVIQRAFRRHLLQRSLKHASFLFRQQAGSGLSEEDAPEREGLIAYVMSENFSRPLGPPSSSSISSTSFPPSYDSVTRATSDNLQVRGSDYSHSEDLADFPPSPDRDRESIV
Sequence of human NaV1.4 (P35499 whole entry): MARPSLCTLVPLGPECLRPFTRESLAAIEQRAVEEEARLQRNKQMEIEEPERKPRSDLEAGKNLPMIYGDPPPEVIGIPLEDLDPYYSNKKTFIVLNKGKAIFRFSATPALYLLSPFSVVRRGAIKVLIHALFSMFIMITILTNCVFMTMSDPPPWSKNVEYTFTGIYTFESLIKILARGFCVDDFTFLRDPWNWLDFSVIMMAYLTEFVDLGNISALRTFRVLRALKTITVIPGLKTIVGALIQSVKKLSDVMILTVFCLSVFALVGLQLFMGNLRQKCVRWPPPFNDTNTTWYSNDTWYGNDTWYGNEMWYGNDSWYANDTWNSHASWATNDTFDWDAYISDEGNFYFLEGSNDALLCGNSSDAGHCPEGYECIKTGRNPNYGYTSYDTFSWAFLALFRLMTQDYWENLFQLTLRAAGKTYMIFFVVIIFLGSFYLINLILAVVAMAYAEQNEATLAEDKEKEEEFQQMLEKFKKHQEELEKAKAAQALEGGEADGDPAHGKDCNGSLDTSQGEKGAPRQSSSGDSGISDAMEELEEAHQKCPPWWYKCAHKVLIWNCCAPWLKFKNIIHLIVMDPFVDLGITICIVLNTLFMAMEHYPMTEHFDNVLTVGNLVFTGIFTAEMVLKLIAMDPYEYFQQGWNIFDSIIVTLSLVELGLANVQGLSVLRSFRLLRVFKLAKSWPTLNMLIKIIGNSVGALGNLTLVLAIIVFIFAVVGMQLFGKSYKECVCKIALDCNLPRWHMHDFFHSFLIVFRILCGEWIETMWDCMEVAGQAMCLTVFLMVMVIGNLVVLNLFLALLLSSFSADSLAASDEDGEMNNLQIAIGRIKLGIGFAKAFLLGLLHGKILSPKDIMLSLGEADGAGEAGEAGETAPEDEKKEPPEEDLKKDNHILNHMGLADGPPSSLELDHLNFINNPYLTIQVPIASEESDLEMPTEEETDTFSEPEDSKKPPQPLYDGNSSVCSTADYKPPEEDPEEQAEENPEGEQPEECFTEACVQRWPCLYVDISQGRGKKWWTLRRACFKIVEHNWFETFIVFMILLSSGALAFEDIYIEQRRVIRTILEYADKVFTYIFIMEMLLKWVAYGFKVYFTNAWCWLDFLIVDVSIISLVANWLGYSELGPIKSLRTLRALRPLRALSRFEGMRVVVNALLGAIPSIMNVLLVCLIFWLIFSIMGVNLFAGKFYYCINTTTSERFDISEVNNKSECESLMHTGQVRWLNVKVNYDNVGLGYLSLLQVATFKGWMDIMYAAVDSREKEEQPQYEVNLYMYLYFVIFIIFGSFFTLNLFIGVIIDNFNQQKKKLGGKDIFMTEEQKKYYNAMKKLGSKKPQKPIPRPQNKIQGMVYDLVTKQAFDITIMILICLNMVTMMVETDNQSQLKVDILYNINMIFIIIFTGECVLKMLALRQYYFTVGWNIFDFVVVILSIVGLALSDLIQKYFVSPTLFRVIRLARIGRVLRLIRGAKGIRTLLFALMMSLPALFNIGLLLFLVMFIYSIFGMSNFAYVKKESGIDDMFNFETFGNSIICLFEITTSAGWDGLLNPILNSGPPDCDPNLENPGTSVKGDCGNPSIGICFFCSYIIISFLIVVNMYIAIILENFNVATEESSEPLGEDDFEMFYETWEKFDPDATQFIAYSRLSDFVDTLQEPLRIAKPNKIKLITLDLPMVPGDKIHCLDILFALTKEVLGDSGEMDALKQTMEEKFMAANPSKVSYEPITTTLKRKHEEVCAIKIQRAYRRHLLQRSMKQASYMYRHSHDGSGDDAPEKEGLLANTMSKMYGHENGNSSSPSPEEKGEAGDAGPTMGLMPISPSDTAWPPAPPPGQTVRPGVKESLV

With `CC[C@H](C)[C@H](NC(=O)[C@@H](NC(=O)[C@H](CCCCN)NC(=O)[C@H](CCCNC(=N)N)NC(=O)[C@@H]1CSSC[C@@H]2NC(=O)[C@H](C)NC(=O)[C@H](CCCNC(=N)N)NC(=O)[C@H](CCCCN)NC(=O)[C@H](CO)NC(=O)[C@H](CC(=O)O)NC(=O)[C@@H]3CSSC[C@H](NC(=O)[C@H](CCCNC(=N)N)NC(=O)[C@H](CC(C)C)NC(=O)CNC(=O)[C@H](CCC(=O)O)NC(=O)[C@H](CSSC[C@H](NC(=O)[C@@H](N)Cc4ccc(O)cc4)C(=O)N[C@@H](CCC(=O)O)C(=O)N[C@@H](CCCCN)C(=O)N[C@@H](Cc4c[nH]c5ccccc45)C(=O)N[C@@H](CCSC)C(=O)N[C@@H](Cc4c[nH]c5ccccc45)C(=O)N[C@@H]([C@@H](C)O)C(=O)N3)NC2=O)C(=O)N[C@@H](CCCCN)C(=O)N[C@@H](CC(C)C)C(=O)N[C@@H](Cc2c[nH]c3ccccc23)C(=O)N1)[C@@H](C)CC)C(N)=O` [Q3 Glu mutant] the IC50 ([1]; read-out: Glu mutant IWQ IC50 NaV1.5) was > 10 µM, the IC50 [2] was 0.333 µM and the IC50 [3, 4] was 1.83 µM.

In the case of `CC[C@H](C)[C@H](NC(=O)[C@@H](NC(=O)[C@H](CCCCN)NC(=O)[C@H](CCCNC(=N)N)NC(=O)[C@@H]1CSSC[C@@H]2NC(=O)[C@H](C)NC(=O)[C@H](CCCNC(=N)N)NC(=O)[C@H](C)NC(=O)[C@H](CO)NC(=O)[C@H](CC(=O)O)NC(=O)[C@@H]3CSSC[C@H](NC(=O)[C@H](CCCNC(=N)N)NC(=O)[C@H](CC(C)C)NC(=O)CNC(=O)[C@H](CCC(=O)O)NC(=O)[C@H](CSSC[C@H](NC(=O)[C@@H](N)Cc4ccc(O)cc4)C(=O)N[C@@H](CCC(N)=O)C(=O)N[C@@H](CCCCN)C(=O)N[C@@H](Cc4c[nH]c5ccccc45)C(=O)N[C@@H](CCSC)C(=O)N[C@@H](Cc4c[nH]c5ccccc45)C(=O)N[C@@H]([C@@H](C)O)C(=O)N3)NC2=O)C(=O)N[C@@H](CCCCN)C(=O)N[C@@H](CC(C)C)C(=O)N[C@@H](Cc2c[nH]c3ccccc23)C(=O)N1)[C@@H](C)CC)C(N)=O` [K12 Ala mutant], the IC50 [1, 5] is reported as > 5 µM.

For `CC[C@H](C)[C@H](NC(=O)[C@@H](NC(=O)[C@H](CCCCN)NC(=O)[C@H](CCCNC(=N)N)NC(=O)[C@@H]1CSSC[C@@H]2NC(=O)[C@H](C)NC(=O)[C@H](CCCNC(=N)N)NC(=O)[C@H](CCCCN)NC(=O)[C@H](CCC(=O)O)NC(=O)[C@H](CC(=O)O)NC(=O)[C@@H]3CSSC[C@H](NC(=O)[C@H](CCCNC(=N)N)NC(=O)[C@H](CC(C)C)NC(=O)CNC(=O)[C@H](CCC(=O)O)NC(=O)[C@H](CSSC[C@H](NC(=O)[C@@H](N)Cc4ccc(O)cc4)C(=O)N[C@@H](CCC(N)=O)C(=O)N[C@@H](CCCCN)C(=O)N[C@@H](Cc4c[nH]c5ccccc45)C(=O)N[C@@H](CCSC)C(=O)N[C@@H](Cc4c[nH]c5ccccc45)C(=O)N[C@@H]([C@@H](C)O)C(=O)N3)NC2=O)C(=O)N[C@@H](CCCCN)C(=O)N[C@@H](CC(C)C)C(=O)N[C@@H](Cc2c[nH]c3ccccc23)C(=O)N1)[C@@H](C)CC)C(N)=O` [S11 Glu mutant], the IC50 [1, 6] was > 5 µM.

For `CC[C@H](C)[C@H](NC(=O)[C@@H](NC(=O)[C@H](CCCCN)NC(=O)[C@H](CCCNC(=N)N)NC(=O)[C@@H]1CSSC[C@@H]2NC(=O)[C@H](C)NC(=O)[C@H](CCCNC(=N)N)NC(=O)[C@H](CCCCN)NC(=O)[C@H](CO)NC(=O)[C@H](CC(=O)O)NC(=O)[C@@H]3CSSC[C@H](NC(=O)[C@H](CCCNC(=N)N)NC(=O)[C@H](CC(C)C)NC(=O)CNC(=O)[C@H](CCC(=O)O)NC(=O)[C@H](CSSC[C@H](NC(=O)[C@@H](N)Cc4ccc(O)cc4)C(=O)N[C@@H](CCC(N)=O)C(=O)N[C@@H](CCCCN)C(=O)N[C@@H](Cc4c[nH]c5ccccc45)C(=O)N[C@@H](CCSC)C(=O)N[C@@H](CCC(=O)O)C(=O)N[C@@H]([C@@H](C)O)C(=O)N3)NC2=O)C(=O)N[C@@H](CCCCN)C(=O)N[C@@H](CC(C)C)C(=O)N[C@@H](Cc2c[nH]c3ccccc23)C(=O)N1)[C@@H](C)CC)C(N)=O` [W7 Glu mutant], the IC50 [1, 6] was > 5 µM.

In the case of `CC[C@H](C)[C@H](NC(=O)[C@@H](NC(=O)[C@H](CCCCN)NC(=O)[C@H](CCCNC(=N)N)NC(=O)[C@@H]1CSSC[C@@H]2NC(=O)[C@H](C)NC(=O)[C@H](CCCNC(=N)N)NC(=O)[C@H](CCCCN)NC(=O)[C@H](CO)NC(=O)[C@H](CC(=O)O)NC(=O)[C@@H]3CSSC[C@H](NC(=O)[C@H](CCCNC(=N)N)NC(=O)[C@H](CC(C)C)NC(=O)[C@H](C)NC(=O)[C@H](CCC(=O)O)NC(=O)[C@H](CSSC[C@H](NC(=O)[C@@H](N)Cc4ccc(O)cc4)C(=O)N[C@@H](CCC(N)=O)C(=O)N[C@@H](CCCCN)C(=O)N[C@@H](Cc4c[nH]c5ccccc45)C(=O)N[C@@H](CCSC)C(=O)N[C@@H](Cc4c[nH]c5ccccc45)C(=O)N[C@@H]([C@@H](C)O)C(=O)N3)NC2=O)C(=O)N[C@@H](CCCCN)C(=O)N[C@@H](CC(C)C)C(=O)N[C@@H](Cc2c[nH]c3ccccc23)C(=O)N1)[C@@H](C)CC)C(N)=O` [G18 Ala mutant], the IC50 [1, 5] is reported as > 5 µM and the IC50 [3, 7] is reported as 0.265 µM.

With `CC[C@H](C)[C@H](NC(=O)[C@@H](NC(=O)[C@H](CCCCN)NC(=O)[C@H](CCCNC(=N)N)NC(=O)[C@@H]1CSSC[C@@H]2NC(=O)[C@H](C)NC(=O)[C@H](CCCNC(=N)N)NC(=O)[C@H](CCCCN)NC(=O)[C@H](CO)NC(=O)[C@H](CC(=O)O)NC(=O)[C@@H]3CSSC[C@H](NC(=O)[C@H](CCCNC(=N)N)NC(=O)[C@H](CC(C)C)NC(=O)CNC(=O)[C@H](CCC(=O)O)NC(=O)[C@H](CSSC[C@H](NC(=O)[C@@H](N)CCC(=O)O)C(=O)N[C@@H](CCC(N)=O)C(=O)N[C@@H](CCCCN)C(=O)N[C@@H](Cc4c[nH]c5ccccc45)C(=O)N[C@@H](CCSC)C(=O)N[C@@H](Cc4c[nH]c5ccccc45)C(=O)N[C@@H]([C@@H](C)O)C(=O)N3)NC2=O)C(=O)N[C@@H](CCCCN)C(=O)N[C@@H](CC(C)C)C(=O)N[C@@H](Cc2c[nH]c3ccccc23)C(=O)N1)[C@@H](C)CC)C(N)=O` [Y1 Glu mutant] the IC50 [1, 6] was > 5 µM and the IC50 [3, 4] was 0.235 µM.

Compound `CC[C@H](C)[C@H](NC(=O)[C@@H](NC(=O)[C@H](CCCCN)NC(=O)[C@H](CCCNC(=N)N)NC(=O)[C@@H]1CSSC[C@@H]2NC(=O)[C@H](C)NC(=O)[C@H](CCCNC(=N)N)NC(=O)[C@H](CCCCN)NC(=O)[C@H](CO)NC(=O)[C@H](CC(=O)O)NC(=O)[C@@H]3CSSC[C@H](NC(=O)[C@H](CCCNC(=N)N)NC(=O)[C@H](CC(C)C)NC(=O)CNC(=O)[C@H](CCC(=O)O)NC(=O)[C@H](CSSC[C@H](NC(=O)[C@H](C)N)C(=O)N[C@@H](CCC(N)=O)C(=O)N[C@@H](CCCCN)C(=O)N[C@@H](Cc4c[nH]c5ccccc45)C(=O)N[C@@H](CCSC)C(=O)N[C@@H](Cc4c[nH]c5ccccc45)C(=O)N[C@@H]([C@@H](C)O)C(=O)N3)NC2=O)C(=O)N[C@@H](CCCCN)C(=O)N[C@@H](CC(C)C)C(=O)N[C@@H](Cc2c[nH]c3ccccc23)C(=O)N1)[C@@H](C)CC)C(N)=O` [Y1 Ala mutant] has an IC50 [1, 8] of 3.07 µM.

In the case of `CC[C@H](C)[C@H](NC(=O)[C@@H](NC(=O)[C@H](CCCCN)NC(=O)[C@H](CCCNC(=N)N)NC(=O)[C@@H]1CSSC[C@@H]2NC(=O)[C@H](C)NC(=O)[C@H](CCCNC(=N)N)NC(=O)[C@H](CCCCN)NC(=O)[C@H](CO)NC(=O)[C@H](CC(=O)O)NC(=O)[C@@H]3CSSC[C@H](NC(=O)[C@H](CCCNC(=N)N)NC(=O)[C@H](CC(C)C)NC(=O)CNC(=O)[C@H](CCC(=O)O)NC(=O)[C@H](CSSC[C@H](NC(=O)[C@@H](N)Cc4ccc(O)cc4)C(=O)N[C@@H](CCC(N)=O)C(=O)N[C@@H](CCCCN)C(=O)N[C@@H](Cc4c[nH]c5ccccc45)C(=O)N[C@@H](CCSC)C(=O)N[C@@H](Cc4c[nH]c5ccccc45)C(=O)N[C@@H]([C@@H](C)O)C(=O)N3)NC2=O)C(=O)N[C@@H](C)C(=O)N[C@@H](CC(C)C)C(=O)N[C@@H](Cc2c[nH]c3ccccc23)C(=O)N1)[C@@H](C)CC)C(N)=O` [K22 Ala mutant], the IC50 [1, 5] is reported as > 5 µM.

`CC[C@H](C)[C@H](NC(=O)[C@@H](NC(=O)[C@H](CCCCN)NC(=O)[C@H](CCCNC(=N)N)NC(=O)[C@@H]1CSSC[C@@H]2NC(=O)[C@H](C)NC(=O)[C@H](CCCNC(=N)N)NC(=O)[C@H](CCCCN)NC(=O)[C@H](CO)NC(=O)[C@H](CC(=O)O)NC(=O)[C@@H]3CSSC[C@H](NC(=O)[C@H](C)NC(=O)[C@H](CC(C)C)NC(=O)CNC(=O)[C@H](CCC(=O)O)NC(=O)[C@H](CSSC[C@H](NC(=O)[C@@H](N)Cc4ccc(O)cc4)C(=O)N[C@@H](CCC(N)=O)C(=O)N[C@@H](CCCCN)C(=O)N[C@@H](Cc4c[nH]c5ccccc45)C(=O)N[C@@H](CCSC)C(=O)N[C@@H](Cc4c[nH]c5ccccc45)C(=O)N[C@@H]([C@@H](C)O)C(=O)N3)NC2=O)C(=O)N[C@@H](CCCCN)C(=O)N[C@@H](CC(C)C)C(=O)N[C@@H](Cc2c[nH]c3ccccc23)C(=O)N1)[C@@H](C)CC)C(N)=O` [R20 Ala mutant] was tested, and the IC50 [1, 5] was 4.64 µM and the IC50 [3, 7] was 0.425 µM.

`CC[C@H](C)[C@H](NC(=O)[C@@H](NC(=O)[C@H](CCCCN)NC(=O)[C@H](CCCNC(=N)N)NC(=O)[C@@H]1CSSC[C@@H]2NC(=O)[C@H](C)NC(=O)[C@H](CCCNC(=N)N)NC(=O)[C@H](CCCCN)NC(=O)[C@H](C)NC(=O)[C@H](CC(=O)O)NC(=O)[C@@H]3CSSC[C@H](NC(=O)[C@H](CCCNC(=N)N)NC(=O)[C@H](CC(C)C)NC(=O)CNC(=O)[C@H](CCC(=O)O)NC(=O)[C@H](CSSC[C@H](NC(=O)[C@@H](N)Cc4ccc(O)cc4)C(=O)N[C@@H](CCC(N)=O)C(=O)N[C@@H](CCCCN)C(=O)N[C@@H](Cc4c[nH]c5ccccc45)C(=O)N[C@@H](CCSC)C(=O)N[C@@H](Cc4c[nH]c5ccccc45)C(=O)N[C@@H]([C@@H](C)O)C(=O)N3)NC2=O)C(=O)N[C@@H](CCCCN)C(=O)N[C@@H](CC(C)C)C(=O)N[C@@H](Cc2c[nH]c3ccccc23)C(=O)N1)[C@@H](C)CC)C(N)=O` [S11 Ala mutant] was tested, and the IC50 [1, 8] was 3.56 µM.
